# Data published in ChEMBL document CHEMBL5365529, “Construction and Evaluation of Novel Dual-function Antifungal Inhibitors and Covalent Organic Framework Carriers Based on the Infection Microenvironment” (J Med Chem, 2023).
# Active and inactive are the calls of the source. The calls are words filed in the database; no cut-off is given here.
# What was measured:
# [1] = target: Programmed cell death 1 ligand 1 (Homo sapiens, UniProt Q9NZQ7); assay: Inhibition of human PD-L1 incubated for 15 mins by ELISA method
# Chain of Programmed cell death 1 ligand 1 (Q9NZQ7 whole entry): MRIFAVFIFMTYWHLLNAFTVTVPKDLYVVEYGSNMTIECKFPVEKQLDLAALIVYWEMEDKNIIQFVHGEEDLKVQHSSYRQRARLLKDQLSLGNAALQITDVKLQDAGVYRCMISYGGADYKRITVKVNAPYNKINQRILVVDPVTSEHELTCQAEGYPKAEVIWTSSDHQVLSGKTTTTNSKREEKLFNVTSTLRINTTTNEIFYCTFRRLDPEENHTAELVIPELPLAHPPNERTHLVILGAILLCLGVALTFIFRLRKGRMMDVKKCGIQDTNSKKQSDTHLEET
# Candida albicans [2] = assay: Induction of morphological changes in Candida albicans SC5314 assessed as leakage of cell contents measured for 96 to 144 hrs by TEM analysis; assay type: functional, organism-based; details: time 96-144 hrs
# Candida albicans [3] = assay: Antifungal activity against FLC-resistant Candida albicans 632 assessed as fungal growth inhibition incubated for 72 hrs by CLSI based susceptibility test; assay type: functional
# Aspergillus fumigatus = assay: Antifungal activity against Aspergillus fumigatus KM8001 assessed as fungal growth inhibition incubated for 72 hrs by CLSI based susceptibility test; assay type: functional
# [4] = Toxicity in BALB/c mouse infected with Candida albicans 901 assessed as toxic side effects at 0.5 ug/g administered 6 times measured after 4 days; details: in vivo, 96 h, dose 0.5 µg/g, time 4 day
# [5] = Drug uptake in Candida albicans SC5314 assessed as increase in red fluorescence by PI staining based imaging analysis; assay type: ADME
# Candida albicans [6] = assay: Antifungal activity against Candida albicans 901 infected in BALB/c mouse assessed as disappearance of nuclear aggregation in lesion at 0.5 ug/g administered 6 times measured after 4 days by H and E staining based analysis; assay type: functional, organism-based; details: dose 0.5 µg/g, time 4.0 day
# Candida albicans [7] = assay: Antifungal activity against Candida albicans 901 infected in BALB/c mouse assessed as inhibition of fungal proliferation at 0.5 ug/g administered 6 times measured after 4 days by Masson staining based analysis; assay type: functional, organism-based; details: dose 0.5 µg/g, time 4.0 day
# Candida albicans [8] = assay: Antifungal activity against Candida albicans 901 infected in BALB/c mouse assessed as repair of tissue damage at 0.5 ug/g administered 6 times measured after 4 days by Masson staining based analysis; assay type: functional, organism-based; details: dose 0.5 µg/g, time 4.0 day
# [9] = target: Lanosterol 14-alpha demethylase (Candida albicans (strain SC5314 / ATCC MYA-2876) (Yeast), UniProt P10613); assay: Inhibition of CYP51 in Candida albicans SC5314 assessed as ergosterol level at 4 ug/ml incubated for 16 hrs by GC-MS analysis (reference value: 92.07 %); set-up: scale not given: the % may be the effect or the level left; details: at 4 µg/mL
# Chain of Lanosterol 14-alpha demethylase (P10613 whole entry): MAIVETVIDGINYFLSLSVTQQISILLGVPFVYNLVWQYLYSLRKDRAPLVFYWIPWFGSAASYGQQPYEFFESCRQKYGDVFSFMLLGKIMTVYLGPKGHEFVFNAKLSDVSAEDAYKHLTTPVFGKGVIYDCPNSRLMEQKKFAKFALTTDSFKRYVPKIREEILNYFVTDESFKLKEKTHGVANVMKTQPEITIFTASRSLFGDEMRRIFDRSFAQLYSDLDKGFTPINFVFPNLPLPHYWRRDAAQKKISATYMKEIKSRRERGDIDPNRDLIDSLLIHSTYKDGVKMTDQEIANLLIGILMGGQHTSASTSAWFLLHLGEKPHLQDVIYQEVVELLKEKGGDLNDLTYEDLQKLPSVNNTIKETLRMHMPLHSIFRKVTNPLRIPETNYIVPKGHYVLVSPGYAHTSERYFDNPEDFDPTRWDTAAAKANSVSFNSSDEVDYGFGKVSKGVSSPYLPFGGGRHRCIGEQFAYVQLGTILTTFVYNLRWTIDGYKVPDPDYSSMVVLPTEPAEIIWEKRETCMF
# [10] = Toxicity in BALB/c mouse infected with Candida albicans 901 assessed as pathological change in spleen at 0.5 ug/g administered 6 times measured after 4 days by H and E staining based analysis; assay type: tissue-based; details: in vivo, 96 h, dose 0.5 µg/g, time 4 day
# Candida albicans [11] = assay: Induction of immunity in BALB/c mouse infected with Candida albicans 901 assessed as increase in CD3 positive level at 0.5 ug/g administered 6 times measured after 4 days by IHC analysis; assay type: functional, organism-based; details: dose 0.5 µg/g, time 4.0 day
# Candida albicans [12] = assay: Induction of apoptosis in Candida albicans SC5314 assessed as necrotic cells incubated for 48 hrs by annexin V-FITC/PI staining based flow cytometry (reference value: 2.12 %); assay type: functional
# Candida albicans [13] = assay: Induction of immunity in BALB/c mouse infected with Candida albicans 901 assessed as decrease in PD-L1 level at 0.5 ug/g administered 6 times measured after 4 days by Western blot analysis; assay type: functional, organism-based; details: dose 0.5 µg/g, time 4.0 day
# [14] = Drug uptake in Candida albicans SC5314 assessed as increase in blue fluorescence by hoechst 33256 staining based imaging analysis; assay type: ADME
# Mus musculus = assay: Antiinflammatory activity in BALB/c mouse infected with Candida albicans 901 assessed as decrease in COX-2 level at 0.5 ug/g administered 6 times measured after 4 days by IHC analysis; assay type: functional, organism-based; details: dose 0.5 µg/g, time 4.0 day
# Candida albicans [15] = assay: Induction of morphological changes in Candida albicans SC5314 assessed as accumulation of low-density granules measured for 96 to 144 hrs by TEM analysis; assay type: functional, organism-based; details: time 96-144 hrs
# Candida albicans [16] = assay: Induction of immunity in BALB/c mouse infected with Candida albicans 901 assessed as decrease in PD-L1 level at 0.5 ug/g administered 6 times measured after 4 days by IHC analysis; assay type: functional, organism-based; details: dose 0.5 µg/g, time 4.0 day
# [17] = Toxicity in BALB/c mouse infected with Candida albicans 901 assessed as plasma AST level at 0.5 ug/g administered 6 times measured after 4 days (reference value: 50.6 +/- 2.3 IU/L); details: in vivo, 96 h, dose 0.5 µg/g, time 4 day
# Candida albicans [18] = assay: Antifungal activity against Candida albicans SC5314 assessed as fungal growth inhibition incubated for 72 hrs by CLSI based susceptibility test; assay type: functional
# Candida albicans [19] = assay: Antifungal activity against Candida albicans 901 infected in BALB/c mouse assessed as repair of tissue damage at 0.5 ug/g administered 6 times measured after 4 days by GMS staining based analysis; assay type: functional, organism-based; details: dose 0.5 µg/g, time 4.0 day
smiles,measurement,setting,value
COC(=O)[C@@H](Cn1cncn1)NCc1cccc(OCc2cccc(-c3ccccc3)c2C)c1,IC50,[1],21 nM
same,Activity,Candida albicans [2],Active
same,MIC50,Candida albicans [3],4 µg/mL
same,MIC50,Aspergillus fumigatus,2 µg/mL
same,Activity,[4],Non-Toxic
same,Drug uptake,[5],Active
same,Activity,Candida albicans [6],Active
same,inhibition,Candida albicans [7],Active
same,Activity,Candida albicans [8],Active
same,Activity,[9],9.72%
same,Activity,[10],Non-Toxic
same,Activity,Candida albicans [11],Active
same,Activity,Candida albicans [12],25.91%
same,Activity,Candida albicans [13],Active
same,Drug uptake,[14],Active
same,Activity,Mus musculus,Active
same,Activity,Candida albicans [15],Active
same,Activity,Candida albicans [16],Active
same,Activity,[17],57.4 IU/L
same,MIC50,Candida albicans [18],0.125 µg/mL
same,Activity,Candida albicans [19],Active
